Consider 38 compounds from patent US20240293559A1, “SHP2 inhibitor, pharmaceutical composition containing the same and application thereof” (BEIJING TIDE PHARMACEUTICAL CO., LTD., priority 2021, published 2024).

One may read the DC50 as the concentration at which degradation of the target reaches its halfway point.

Structures are written as SMILES.

The target in the assay is T1, SHP2 (Homo sapiens, UniProt Q06124).
T1 construct: endogenous in cells; host or cells: MV 411
T1 sequence (Q06124 1-593): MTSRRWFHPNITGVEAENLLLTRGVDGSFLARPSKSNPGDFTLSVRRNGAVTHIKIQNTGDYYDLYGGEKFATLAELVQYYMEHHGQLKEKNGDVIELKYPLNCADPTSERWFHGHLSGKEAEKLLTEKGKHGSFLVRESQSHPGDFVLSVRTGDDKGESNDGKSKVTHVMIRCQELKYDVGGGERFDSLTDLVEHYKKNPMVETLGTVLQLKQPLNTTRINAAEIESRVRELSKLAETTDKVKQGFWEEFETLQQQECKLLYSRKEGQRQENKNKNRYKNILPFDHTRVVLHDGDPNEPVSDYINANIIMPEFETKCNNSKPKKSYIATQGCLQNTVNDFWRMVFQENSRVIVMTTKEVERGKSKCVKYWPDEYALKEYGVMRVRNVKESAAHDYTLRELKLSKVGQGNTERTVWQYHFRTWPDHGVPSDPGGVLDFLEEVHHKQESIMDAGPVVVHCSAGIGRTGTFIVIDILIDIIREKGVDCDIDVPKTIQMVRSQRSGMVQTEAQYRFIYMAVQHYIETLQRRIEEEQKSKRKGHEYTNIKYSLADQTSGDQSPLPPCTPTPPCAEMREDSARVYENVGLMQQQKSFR
Briefly: SHP2 degradation in MV 411 cells by Western blot (median degradation concentration). In kind it is cell-based. The following applies: 24 hours with compound, SHP-2 antibody Western blot, concentration of the median degradation from exposure gray scale. From the text:
Reagent: complete DMEM medium, Gibco products. Fetal bovine serum, manufactured byThermoFisher. Trypsin, manufactured byThermoFisher. The SHP-2 antibody is produced by CST. Cell line, MV 411, the blast cells of patients with bi-phenotypic B-myelomonocytic leukemia, was established by Rovera. Measuring method: took the cells growing in the logarithmic phase, collected and suspended the cells in DMEM containing 10% fetal calf serum, gently blowed and beated the cells into single cell suspension by using a pipette, and counted the living cells under a microscope. […] Then cultured for 24 hours. All cells were collected and washed with PBS, lysed with RIPA lysate and collected into a 1.7 ml tube. […] metal bath for 5 minutes to fully denature the protein. 100V constant voltage electrophoresis after Western condensation and loading, stopped when bromophenol blue band reached the end point. The cellulose acetate membrane is transferred by a wet method, 45 minutes at a constant flow of 300-500 mA, 5% BSA is used for blocking for 1-2 hours at room temperature. Primary antibody of 1:500-1:8000 were used for incubation at 25° C. for 40 minutes and then washed three times. Secondary antibody was used for incubation for 15-40 min at room temperature. The proteins were detected using ultrasensitive ECL luminophores such as […], using an X-Ray film automatic developing machine. The concentration of the median degradation was calculated by exposure gray scale.
A general note: In western blotting, separated proteins are transferred to a membrane and probed.
As to `CCOc1cc2oc(-c3ccc(OCCOCCOCCOCCOc4cccc5c4C(=O)N(C4CCC(=O)NC4=O)C5=O)cc3Cl)cc(=O)c2cc1-c1cccc(N)c1` (centres unmarked) [Compound 26], the DC50 was 3.5 µM. With `CCOc1cc2oc(-c3ccc(NCCOCCOCCOCCOc4cccc5c4C(=O)N(C4CCC(=O)NC4=O)C5=O)cc3Cl)cc(=O)c2cc1CN1CCC[C@@H]1CO` (some centres unmarked) [Compound 53], the DC50 stood at 0.005 µM.

Consider `CCOc1cc2oc(-c3ccc(OCCOCCOCCOCCOc4cccc5c4C(=O)N(C4CCC(=O)NC4=O)C5=O)cc3Cl)cc(=O)c2cc1-c1cc(C(N)=O)cc(-c2cccnc2)c1` (centres unmarked) [Compound 57], for which the DC50 was above 1 µM.

As to `CCOc1cc2oc(-c3ccc(OCCOCCOCCOCCOc4cccc5c4C(=O)N(C4CCC(=O)NC4=O)C5=O)cc3Cl)cc(=O)c2cc1-c1cc(NS(C)(=O)=O)cc(C(N)=O)c1` (centres unmarked) [Compound 66], the DC50 was above 0.25 µM. The result for `CCOc1cc2oc(-c3ccc(OCCOCCOCCOCCOc4cccc5c4C(=O)N(C4CCC(=O)NC4=O)C5=O)cc3Cl)cc(=O)c2cc1-c1cc(C(N)=O)cc(-c2ccncc2)c1` (centres unmarked) [Compound 58] reads 0.5 µM; that for `CCOc1cc2oc(-c3ccc(OCCOCCOCCOCCOc4cccc5c4C(=O)N(C4CCC(=O)NC4=O)C5=O)cc3Cl)cc(=O)c2cc1-c1cc(C(N)=O)cc(-n2ccnc2)c1` (centres unmarked) [Compound 60], above 0.25 µM; that for `CCOc1cc2oc(-c3ccc(NCCOCCOCCOCCOc4cccc5c4C(=O)N(C4CCC(=O)NC4=O)C5=O)cc3Cl)cc(=O)c2cc1-c1cccc(C(C)=O)c1` (centres unmarked) [Compound 14], 0.025 µM.

With `CCOc1cc2oc(-c3ccc(OCCOCCOCCOCCOc4cccc5c4C(=O)N(C4CCC(=O)NC4=O)C5=O)cc3Cl)cc(=O)c2cc1-c1cc(C(N)=O)cc(C(N)=O)c1` (centres unmarked) [Compound 74], the DC50 came to 0.002 µM. In the case of `CCOc1cc2oc(-c3ccc(OCc4cn(CC(=O)N5CCC(OC6CC(Oc7cccc8c7C(=O)N(C7CCC(=O)NC7=O)C8=O)C6)CC5)nn4)cc3Cl)cc(=O)c2cc1-c1cccc(C(C)=O)c1` (centres unmarked) [Compound 88], the DC50 was 0.055 µM. The result for `CCOc1cc2oc(-c3ccc(OCCOCCOCCOCCOc4ccc5c(c4)C(=O)N(C4CCC(=O)NC4=O)C5=O)cc3Cl)cc(=O)c2cc1-c1cncc(C(C)=O)c1` (centres unmarked) [Compound 87] reads 0.045 µM.

As to `CCOc1cc2oc(-c3ccc(NCCOCCOCCOCCOc4cccc5c4C(=O)N(C4CCC(=O)NC4=O)C5=O)cc3Cl)cc(=O)c2cc1CN1CCCC[C@@H]1C(N)=O` (some centres unmarked) [Compound 51], the DC50 was above 0.25 µM. With `CCOc1cc2oc(-c3ccc(OCCOCCOCCOCCOc4cccc5c4C(=O)N(C4CCC(=O)NC4=O)C5=O)cc3Cl)cc(=O)c2cc1-c1cc(NS(=O)(=O)c2ccccc2)cc(C(N)=O)c1` (centres unmarked) [Compound 68], the DC50 was above 0.25 µM. `CCOc1cc2oc(-c3ccc(OCCOCCOCCOCCOc4cccc5c4C(=O)N(C4CCC(=O)NC4=O)C5=O)cc3Cl)cc(=O)c2cc1-c1cc(C(C)=O)cc(C(N)=O)c1` (centres unmarked) [Compound 75]: the DC50 amounted to 0.0246 µM.

Consider `CCOc1cc2oc(-c3ccc(OCCOCCOCCOCCOc4cccc5c4C(=O)N(C4CCC(=O)NC4=O)C5=O)cc3Cl)cc(=O)c2cc1-c1cc(C(N)=O)cc(C(C)(C)C)c1` (centres unmarked) [Compound 43], for which the DC50 is above 0.25 µM. The result for `CCOc1cc2oc(-c3ccc(OCCOCCOCCOCCOc4cccc5c4C(=O)N(C4CCC(=O)NC4=O)C5=O)cc3Cl)cc(=O)c2cc1-c1ccc(S(C)(=O)=O)cc1F` (centres unmarked) [Compound 28] reads 0.11 µM; that for `CCOc1cc2oc(-c3ccc(OCCOCCOCCOCCOc4cccc5c4C(=O)N(C4CCC(=O)NC4=O)C5=O)cc3Cl)cc(=O)c2cc1-c1cncc(C=O)c1` (centres unmarked) [Compound 29], 0.015 µM; that for `CCOc1cc2oc(-c3ccc(OCCOCCOCCOCCOc4cccc5c4C(=O)N(C4CCC(=O)NC4=O)C5=O)cc3Cl)cc(=O)c2cc1-c1cc(C(N)=O)cc(C(=O)N(C)C)c1` (centres unmarked) [Compound 77], above 0.25 µM. Consider `CCOc1cc2oc(-c3ccc(OCCOCCOCCOCCOc4cccc5c4C(=O)N(C4CCC(=O)NC4=O)C5=O)cc3Cl)cc(=O)c2cc1-c1cc(C(N)=O)ccc1O` (centres unmarked) [Compound 46], for which the DC50 came to 0.006 µM. Regarding `CCOc1cc2oc(-c3ccc(OCCOCCOCCOCCOc4cccc5c4C(=O)N(C4CCC(=O)NC4=O)C5=O)cc3Cl)cc(=O)c2cc1-c1cc(C(N)=O)cc(N(C)C)c1` (centres unmarked) [Compound 63], the DC50 was above 0.25 µM.

Turning to `CCOc1cc2oc(-c3ccc(NCCOCCOCCOCCOc4cccc5c4C(=O)N(C4CCC(=O)NC4=O)C5=O)cc3Cl)cc(=O)c2cc1-c1cccc(C(N)=O)c1` (centres unmarked) [Compound 16], the DC50 came out at 0.25 µM. `CCOc1cc2oc(-c3ccc(OCCOCCOCCOCCOc4cccc5c4C(=O)N(C4CCC(=O)NC4=O)C5=O)cc3Cl)cc(=O)c2cc1-c1cc(N)cc(C(=O)O)c1` (centres unmarked) [Compound 30]: the DC50 came to 2 µM. Consider `CCOc1cc2oc(-c3ccc(OCCOCCOCCOCCOc4cccc5c4C(=O)N(C4CCC(=O)NC4=O)C5=O)cc3Cl)cc(=O)c2cc1-c1cc(O)cc(C(N)=O)c1` (centres unmarked) [Compound 73], for which the DC50 is above 0.25 µM. Consider `CCOc1cc2oc(-c3ccc(OCCOCCOCCOCCOc4cccc5c4C(=O)N(C4CCC(=O)NC4=O)C5=O)cc3Cl)cc(=O)c2cc1-c1cc(C(N)=O)cc(C2CCCCC2)c1` (centres unmarked) [Compound 54], for which the DC50 is above 0.25 µM.

With `CCOc1cc2oc(-c3ccc(OCCOCCOCCOCCOc4cccc5c4C(=O)N(C4CCC(=O)NC4=O)C5=O)cc3Cl)cc(=O)c2cc1-c1cc(C(N)=O)cc(C(=O)NC)c1` (centres unmarked) [Compound 76], the DC50 is above 0.25 µM. Take `CCOc1cc2oc(-c3ccc(NCCOCCOCCOCCOc4cccc5c4C(=O)N(C4CCC(=O)NC4=O)C5=O)cc3Cl)cc(=O)c2cc1-c1cc(C=O)ccc1F` (centres unmarked) [Compound 13]: the DC50 came to 0.05 µM. For `CCOc1cc2oc(-c3ccc(NCCOCCOCCOCCOc4cccc5c4C(=O)N(C4CCC(=O)NC4=O)C5=O)cc3Cl)cc(=O)c2cc1COc1ccccc1C(N)=O` (centres unmarked) [Compound 52], the DC50 was above 0.25 µM. On to `CCOc1cc2oc(-c3ccc(NCCOCCOCCOCCOc4cccc5c4C(=O)N(C4CCC(=O)NC4=O)C5=O)cc3Cl)cc(=O)c2cc1-c1cc(F)cc(C=O)c1` (centres unmarked) [Compound 17], for which the DC50 worked out at 0.25 µM.

As to `CCOc1cc2oc(-c3ccc(OCCOCCOCCOCCOc4cccc5c4C(=O)N(C4CCC(=O)NC4=O)C5=O)cc3Cl)cc(=O)c2cc1-c1cc(C(N)=O)cc(-c2c[nH]cn2)c1` (centres unmarked) [Compound 61], the DC50 is above 0.25 µM. As for `CCOc1cc2oc(-c3ccc(OCCOCCOCCOCCOc4cccc5c4C(=O)N(C4CCC(=O)NC4=O)C5=O)cc3Cl)cc(=O)c2cc1-c1cc(C(N)=O)cc(C(F)(F)F)c1` (centres unmarked) [Compound 44], the DC50 came to 0.75 µM.

Take `CCOc1cc2oc(-c3ccc(OCCOCCOCCOCCOc4cccc5c4C(=O)N(C4CCC(=O)NC4=O)C5=O)cc3Cl)cc(=O)c2cc1-c1cc(NC(C)=O)cc(C(N)=O)c1` (centres unmarked) [Compound 64]: the DC50 is above 0.25 µM. Take `CCOc1cc2oc(-c3ccc(OCCOCCOCCOCCOc4cccc5c4C(=O)N(C4CCC(=O)NC4=O)C5=O)cc3Cl)cc(=O)c2cc1-c1cc(N)cc(C(=O)OC)c1` (centres unmarked) [Compound 40]: the DC50 came to 0.75 µM. Turning to `CCOc1cc2oc(-c3ccc(OCCOCCOCCOCCOc4cccc5c4C(=O)N(C4CCC(=O)NC4=O)C5=O)cc3Cl)cc(=O)c2cc1-c1cc(C(N)=O)cc(S(N)(=O)=O)c1` (centres unmarked) [Compound 80], the half-maximal degradation concentration (DC50) was above 0.5 µM. The result for `CCOc1cc2oc(-c3ccc(OCCOCCOCCOCCOc4cccc5c4C(=O)N(C4CCC(=O)NC4=O)C5=O)cc3Cl)cc(=O)c2cc1-c1cc(C(N)=O)cc(N(C)C(C)=O)c1` (centres unmarked) [Compound 65] reads above 0.25 µM. On to `CCOc1cc2oc(-c3ccc(OCCOCCOCCOCCOc4cccc5c4C(=O)N(C4CCC(=O)NC4=O)C5=O)cc3Cl)cc(=O)c2cc1-c1cc(C(N)=O)cc(-c2ccccc2)c1` (centres unmarked) [Compound 55], for which the DC50 was above 1 µM. Take `CCOc1cc2oc(-c3ccc(OCCOCCOCCOCCOc4cccc5c4C(=O)N(C4CCC(=O)NC4=O)C5=O)cc3Cl)cc(=O)c2cc1-c1cc(NC(=O)NC)cc(C(N)=O)c1` (centres unmarked) [Compound 70]: the DC50 is above 0.25 µM.

Turning to `CCOc1cc2oc(-c3ccc(OCCOCCOCCOCCOc4ccc5c(c4)C(=O)N(C4CCC(=O)NC4=O)C5=O)cc3Cl)cc(=O)c2cc1-c1cc(C(C)=O)cc(C(N)=O)c1` (centres unmarked) [Compound 35], the DC50 worked out at 0.025 µM. Regarding `CCOc1cc2oc(-c3ccc(OCCOCCOCCOCCOc4cccc5c4C(=O)N(C4CCC(=O)NC4=O)C5=O)cc3Cl)cc(=O)c2cc1-c1cc(C)cc(C(N)=O)c1` (centres unmarked) [Compound 42], the DC50 came to 0.75 µM. `CCOc1cc2oc(-c3ccc(NCCOCCOCCOCCOc4cccc5c4C(=O)N(C4CCC(=O)NC4=O)C5=O)cc3Cl)cc(=O)c2cc1-c1ccc2c(c1)CCC2` (centres unmarked) [Compound 12]: the DC50 worked out at 0.92 µM.
